The record followed here is patent US6274568A, “Compounds for altering cell surface sialic acids and methods of use therefor” (priority 1999, dated 2001).

Each structure is given as a SMILES string.

One data set relates to MAG-Fc chimera. Description: MAG-Fc binding to precursor-treated NG108-15 cells by flow cytometry. Format: cell-based. As to the method:
Flow cytometry was used to test binding of a soluble MAG-Fc chimera to precursor-treated and control NG108-15 cells. A chimeric protein consisting of the entire extracellular domain of MAG fused via a three amino acid bridge (TGK) to the human Fc domain was produced using the "pIgPlus" vector (Novagen, Madison, Wis.). A PCR fragment coding for the extracellular domain of MAG was prepared using MAG in pCDM8 as template (Yang et al., 1996a), the T7 5' primer […] (SEQ ID NO:1) and […] (SEQ ID NO:2) as the 3' primer. The fragment was cut with BamHI and HindIII and directionally cloned into the pIgPlus vector. The resulting construct was sequenced to confirm its identity, transfected into COS cells, and the resulting MAG-Fc chimera was purified from the culture medium using Protein G affinity chromatography.
For MAG binding studies, NG108-15 cells were cultured in the presence of sialic acid precursors for the indicated times, then were released from culture dishes using hypertonic Ca^2+ /Mg^2+ -free phosphate-buffered saline (Yang et al., Proc. Natl. Acad. Sci. USA., 93:814, 1996) and resuspended (at […]) in 25 mM Hepes-buffered Hanks balanced salt solution (Bashor, Methods Enzymol., 58:119, 1979) containing 5 mg/ml bovine serum albumin. MAG-Fc (6 μg) was added to 100 μl of the same buffer containing 6 μg fluorescein isothiocyanate-labeled goat anti-human Fc (Jackson Immunoresearch, West Grove, Pa.) and incubated on ice for 1 h 45 min with frequent mixing. Cell suspension (100 μl containing 50,000 cells) was added to the premixed antibody solution and the mixture incubated on ice for 45 min. The cells were then centrifuged for 4 sec at 16,000×g and washed three times by resuspension in 200 μl of buffer with bovine serum albumin and centrifugation. The resulting cell pellet was resuspended in 100 μl buffer with bovine serum albumin and flow cytometry was performed on an Epics Profile II cytometer (Coulter Corp, Hialeah, Fla.).
NG108-15 cells, a mouse neuroblastoma/rat glioma hybrid, display many qualities of cholinergic neurons, including neurite outgrowth, synthesis, storage and release of acetylcholine, and functional synapse formation with muscle cells in vitro. Neurite outgrowth from NG108-15 cells is inhibited by MAG (McKerracher et al., Neuron, 13:805, 1994), an interaction which is reversed by pretreatment of the cells with neuraminidase (Schnaar et al., Ann. N.Y. Acad. Sci., 845:92, 1998). […] Binding was quantified by flow cytometry. […]
Background: A flow cytometer gives signals particle by particle.

The subject of another data set is NG108-15 cells. Description: O-acetylation state of NeuGc in ManNGcPA-treated NG108-15 cells, thin layer chromatography. As to conditions: 1 mM, 48 h. In kind it is cell-based, mouse neuroblastoma/rat glioma hybrid. The procedure:
O-Acetylated sialic acids from bovine submaxillary mucin served as standards. […] A portion of the organic/aqueous soluble pool (predominantly free sialic acids) was subjected to silicic acid thin layer chromatography using propanol-water (1:1) as developing solvent and resorcinol reagent for detection. Sialic acids released from bovine submaxillary mucin, which contain primarily O-acetylated forms of NeuAc (as well as NeuAc, NeuGc, and O-acetylated forms of NeuGc) were prepared and used as positive controls. Lane 1, bovine submaxillary mucin sialic acids; Lane 2, mucin sialic acids pretreated with concentrated ammonium hydroxide for 2 h at ambient temperature to selectively deplete O-acetyl groups; Lane 3, NeuAc standard; Lane 4, NeuGc standard; Lane 5, extract from ManNGcPA-treated NG108-15 cells. O-Acetylated forms of NeuGc, which are reported to migrate 60-100% farther than the parent NeuGc in this system, appear to be absent from the cell extract.

The next data set is described as follows: in vitro. The conditions noted are these: ng108-15 cells.

Procedure for in vitro: Cell growth rates were determined in control cultures (.box-solid.), in cultures treated with 0.08 mM (.circle-solid.), 0.25 mM (.smallcircle.), or 1 mM (.quadrature.) ManNGcPA, and in cultures treated with 0.25 mM (.tangle-solidup.) or 1 mM (Δ) glucose pentaacetate.
NG108-15 cells were maintained in Dulbecco's modified Eagle's medium (high glucose formulation) containing 5% iron-enriched calf serum, 100 μM hypoxanthine, 16 μM thymidine, and 5 μM aminopterin. […] Both cell types were cultured at 37° C. in a humidified atmosphere of 90% air/10% CO2. For treatment with sialic acid precursors, mannosamine derivatives were diluted into the appropriate medium and filter sterilized. […] In experiments testing ManNGcPA, all cells (control and experimental) were grown in the presence of 0.5% (v/v) DMSO, the carrier for ManNGcPA.

Broadly, the viability is a read-out of living cells in per cent, often relative to untreated cells. On to `CC(=O)OCC(=O)N[C@@H]1C(OC(C)=O)O[C@H](COC(C)=O)[C@@H](OC(C)=O)[C@@H]1OC(C)=O` (some centres unmarked) [ManNGcPA, N-glycolylmannosamine pentaacetate], for which the “inhibition of MAG-Fc binding” value with MAG-Fc chimera (0.25 mM or 1 mM, 96 h) was “≈ 70%”. Also, in the data set on MAG-Fc chimera (1 mM, 144 h, compared to control cells), the “inhibition of specific binding of MAG-Fc” value turned out to be 95%. Moreover, in the data set on NG108-15 cells, the “O-acetylated NeuGc in the precursor pool” value is reported as “no significant proportion of O-acetylated NeuGc” and the “de-O-acetylation prior to or coordinate with metabolism to sialic acid” value is “apparently complete de-O-acetylation”. Also, in the data set “in vitro”, the viability at 70 h, 1000 µM was 76%.
